Laboratory results published in patent publication US10576456B2, “Systems and methods of preparing stabilized lipid assemblies” (ARIZONA BOARD OF REGENTS ON BEHALF OF THE UNIVERSITY OF …, priority 2014, dated 2020).

Legend:
[1] = Frontal chromatography retention on bare silica; type: physicochemical; settings: PBS pH 7.4, 1 μL min^−1, 100 μM sample
Method: (§1) Particles were packed in capillaries (50 μm or 75 μ[…].; Polymicro Technologies, Phoenix, Ariz.) against Microtight filter assemblies (Upchurch Scientific, Oak Harbor, Wash.). […] Frontal chromatography was performed using a lab-built instrument. Isocratic elution with PBS, pH 7.4, as the mobile phase utilized pressure driven flow that was applied by a Micropro Syringe Pumping System (Eldex, Napa, Calif.) connected to a […] injection valve (Valco, Houston, Tex.) with a 600 nL sample loop. […] The elution profile was monitored by ultraviolet absorbance detection (Model 500 Detector, ChromTech, Apple Valley, Minn.) at 220 nm. Signal from the detector was collected with an A/D converter (NI USB-6221, National Instruments, Austin, Tex.) and software written in LabVIEW (National Instruments). […] Statistical significance was determined using the two-tailed Student's t-test.

[2] = Frontal chromatography retention on poly(bis-SorbPC)-coated silica; type: physicochemical; settings: PBS pH 7.4, 1 μL min^−1, 100 μM sample
Method: as §1

[3] = TIRFM measurement of Alexa 488-CTB binding to GM1 in polymerized bis-SorbPC PSLB; settings: 1 mol % GM1; 1 h static incubation
Method: Phosphate buffered saline (PBS) was used to measure the background. Alexa 488-CTB solutions (500 μL) were then injected into the flow cell, sequentially from the lowest concentration to the highest. One hour of static incubation after each injection, the fluorescent signal from GM1-bound Alexa 488-CTB was then measured. The fluorescent signal from dissolved Alexa 488-CTB was negligible so the dissolved protein solution was not flushed from the cell before each measurement. The solid line is a fit of the data to the Hill equation.
CTB labeled with Alexa Fluor 488 (Alexa 488-CTB) was purchased from Invitrogen (Eugene, Oreg.). Total internal reflection fluorescence microscopy (TIRFM) was used to measure the binding of Alexa 488-CTB to 1 mol % GM1 in a polymerized bis-SorbPC PSLB. The TIRFM system has been described previously. The 488 nm line of an Ar^+ laser (Ion Laser Technology) was coupled into a fused silica slide using a 45° prism (Edmund Optics). […] One of the internal reflections at the upper surface of the slide was used to excite fluorescence from Alexa 488-CTB bound to the PSLB. The fluorescence signal was collected using a 4× objective, directed through a 535DF35 (Omega Optical, Brattleboro, Vt.) band pass filter, and detected using CCD (Andor Technology USA, South Windsor, Conn.).

| Molecule | Retention time [1] | Retention time [2] | dissolved concentration that saturates the PSLB [3] |
| --- | --- | --- | --- |
| CC(=O)Oc1ccccc1C(=O)O [Acetylsalicylic acid] | 10.1 ± 0.2 min | 14.6 ± 0.6 min |  |
| O=C(O)c1ccccc1 [Benzoic acid] | 9.6 ± 0.2 min | 14.1 ± 0.1 min |  |
| O=C(O)c1ccccc1O [Salicylic acid] | 9.7 ± 0.1 min | 14.3 ± 0.1 min |  |
| Alexa 488-CTB: CTB labeled with Alexa Fluor 488 |  |  | approximately 0.1 μM |
